28 compounds from patent US9284300B2, “Pyridazinone derivatives” (Merck Patent GmbH, priority 2007, dated 2016) can be followed below.

pIC50: −log10 of the molar value.

The term pIC50 denotes the IC50 on a negative log10 scale, so that one unit is a factor of ten. Lower therefore signals a high IC50.

The first test has as its target T1, Met kinase (Homo sapiens, UniProt P08581). The experiment in a line: Flashplate method (Met kinase). To be noted: Met kinase inhibition, enzyme assay. Format: biochemical. Details: 6His (N); purchased Upstate 14-526; host or cells: Sf21 insect cells (S. frugiperda), baculovirus. On the procedure: The test plates used are 96-well Flashplate^R microtitre plates from Perkin Elmer (Cat. No. SMP200).
The full value used is the inhibitor-free kinase reaction. This should be approximately in the range 6000-9000 cpm. The pharmacological zero value used is staurosporin in a final concentration of 0.1 mM. The inhibitory values (IC50) are determined using the RS1_MTS program.
Kinase reaction conditions per well: • 30 μl of assay buffer • 10 μl of substance to be tested in assay buffer with 10% of DMSO • 10 μl of ATP (final concentration 1 μM cold, 0.35 μCi of ^33P-ATP) • 50 μl of Met kinase/substrate mixture in assay buffer; (10 ng of enzyme/well, 50 ng of pAGLT/well)
Target sequence in this assay (P08581 974-1390 limits assumed): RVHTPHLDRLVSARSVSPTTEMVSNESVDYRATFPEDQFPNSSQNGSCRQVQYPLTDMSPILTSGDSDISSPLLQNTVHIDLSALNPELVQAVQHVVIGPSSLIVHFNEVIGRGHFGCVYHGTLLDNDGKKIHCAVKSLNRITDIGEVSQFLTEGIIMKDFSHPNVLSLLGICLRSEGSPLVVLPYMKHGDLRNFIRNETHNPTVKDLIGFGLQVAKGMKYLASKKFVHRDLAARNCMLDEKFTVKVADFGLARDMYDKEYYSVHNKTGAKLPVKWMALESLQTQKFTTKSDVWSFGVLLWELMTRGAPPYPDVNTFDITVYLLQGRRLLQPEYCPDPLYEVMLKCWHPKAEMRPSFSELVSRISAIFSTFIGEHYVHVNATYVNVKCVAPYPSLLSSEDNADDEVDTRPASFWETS
Compound `Cc1cnc(-c2cccc(Cn3nc(-c4cc(F)c(F)c(F)c4)ccc3=O)c2)nc1` [A1, 2-[3-(5-methylpyrimidin-2-yl)benzyl]-6-(3,4,5-trifluorophenyl)-2H-pyridazin-3-one] had a pIC50 of 6.00 to 9.00.

Take `O=C1OCCCN1c1cccc(Cn2nc(-c3cc(F)cc(F)c3)ccc2=O)c1` [A6, 3-{3-[3-(3,5-difluorophenyl)-6-oxo-6H-pyridazin-1-ylmethyl]phenyl}-1,3-oxazinan-2-one]: the pIC50 was 6.00 to 9.00.

`Cc1ccc(=O)n(-c2cccc(Cn3nc(-c4cc(F)cc(F)c4)ccc3=O)c2)n1` [A8, 1-{3-[3-(3,5-difluorophenyl)-6-oxo-6H-pyridazin-1-yl-methyl]phenyl}-3-methyl-6H-pyridazin-6-one]: the pIC50 is 6.00 to 9.00.

The target of the next test is T1, Met kinase. Kind of test: Met kinase inhibition, cell assay. The test is classed as cell-based.
Details: not given
Target sequence in this assay (P08581 25-1390): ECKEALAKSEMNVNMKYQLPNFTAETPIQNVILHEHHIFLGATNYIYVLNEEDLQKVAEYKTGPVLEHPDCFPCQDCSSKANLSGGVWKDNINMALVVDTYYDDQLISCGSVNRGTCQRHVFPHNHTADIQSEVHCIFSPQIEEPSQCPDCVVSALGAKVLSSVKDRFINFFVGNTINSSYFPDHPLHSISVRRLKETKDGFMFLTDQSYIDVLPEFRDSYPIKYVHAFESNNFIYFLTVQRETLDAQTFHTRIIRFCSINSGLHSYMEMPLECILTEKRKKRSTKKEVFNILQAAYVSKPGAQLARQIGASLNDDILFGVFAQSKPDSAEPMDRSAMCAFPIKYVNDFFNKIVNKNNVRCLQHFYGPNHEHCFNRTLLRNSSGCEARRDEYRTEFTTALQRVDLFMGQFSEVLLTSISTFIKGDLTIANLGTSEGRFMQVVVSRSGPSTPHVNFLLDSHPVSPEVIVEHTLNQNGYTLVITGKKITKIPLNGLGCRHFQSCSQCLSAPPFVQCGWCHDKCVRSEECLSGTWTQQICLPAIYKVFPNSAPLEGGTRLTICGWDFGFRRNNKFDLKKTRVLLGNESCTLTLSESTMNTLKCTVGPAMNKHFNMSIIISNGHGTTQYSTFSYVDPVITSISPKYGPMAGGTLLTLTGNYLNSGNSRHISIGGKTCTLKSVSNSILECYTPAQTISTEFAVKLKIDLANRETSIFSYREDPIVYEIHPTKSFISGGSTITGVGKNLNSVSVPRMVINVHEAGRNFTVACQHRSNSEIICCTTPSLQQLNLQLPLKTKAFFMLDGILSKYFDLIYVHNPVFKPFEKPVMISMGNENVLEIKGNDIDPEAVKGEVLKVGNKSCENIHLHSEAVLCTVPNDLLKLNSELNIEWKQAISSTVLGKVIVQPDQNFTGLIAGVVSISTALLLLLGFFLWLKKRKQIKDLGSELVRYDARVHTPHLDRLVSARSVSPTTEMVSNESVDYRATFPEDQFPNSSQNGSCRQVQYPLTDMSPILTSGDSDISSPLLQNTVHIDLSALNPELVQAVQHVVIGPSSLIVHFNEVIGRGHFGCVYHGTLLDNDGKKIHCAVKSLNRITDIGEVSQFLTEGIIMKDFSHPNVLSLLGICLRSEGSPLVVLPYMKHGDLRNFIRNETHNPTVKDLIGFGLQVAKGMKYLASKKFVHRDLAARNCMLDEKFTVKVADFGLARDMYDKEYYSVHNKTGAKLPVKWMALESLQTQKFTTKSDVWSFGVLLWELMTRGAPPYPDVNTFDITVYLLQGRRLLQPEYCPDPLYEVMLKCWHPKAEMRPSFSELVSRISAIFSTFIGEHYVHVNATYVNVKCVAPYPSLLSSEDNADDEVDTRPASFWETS
In turn, `Cc1cnc(-c2cccc(Cn3nc(-c4cc(F)c(F)c(F)c4)ccc3=O)c2)nc1` [A1, 2-[3-(5-methylpyrimidin-2-yl)benzyl]-6-(3,4,5-trifluorophenyl)-2H-pyridazin-3-one] gave a pIC50 of 6.00 to 9.00.

For `O=c1ccc(-c2cc(F)cc(F)c2)nn1Cc1cccc(-c2nccc(N3CCNCC3)n2)c1` [A13, 6-(3,5-difluorophenyl)-2-[3-(4-piperazin-1-ylpyrimidin-2-yl)benzyl]-2H-pyridazin-3-one], the pIC50 is 5.00 to 6.00.

Consider `CN1CCN(Cc2cnc(-c3cccc(Cn4nc(-c5cc(F)cc(F)c5)ccc4=O)c3)nc2)CC1` [A14, 6-(3,5-difluorophenyl)-2-{3-[5-(4-methylpiperazin-1-yl-methyl)pyrimidin-2-yl]benzyl}-2H-pyridazin-3-one], for which the negative-log IC50 (pIC50) was 6.00 to 9.00.

As for `Cc1cnc(-c2cccc(Cn3nc(-c4cccc(C#N)c4)ccc3=O)c2)nc1` [A15, 3-{1-[3-(5-methylpyrimidin-2-yl)benzyl]-6-oxo-1,6-dihydropyridazin-3-yl}benzonitrile], the negative-log IC50 (pIC50) was 6.00 to 9.00.

Compound `CN(C)C=Nc1cnc(-c2cccc(Cn3nc(-c4cc(F)cc(F)c4)ccc3=O)c2)nc1` [A16, N′-(2-{3-[3-(3,5-difluorophenyl)-6-oxo-6H-pyridazin-1-ylmethyl]phenyl}-pyrimidin-5-yl)-N,N-dimethylformamidine] showed a negative-log IC50 (pIC50) of 6.00 to 9.00.

`Nc1cnc(-c2cccc(Cn3nc(-c4cc(F)cc(F)c4)ccc3=O)c2)nc1` [A17, 2-[3-(5-aminopyrimidin-2-yl)benzyl]-6-(3,5-difluorophenyl)-2H-pyridazin-3-one] showed a pIC50 of 6.00 to 9.00.

`CN1CCN(c2cnc(-c3cccc(Cn4nc(-c5cc(F)cc(F)c5)ccc4=O)c3)nc2)CC1` [A18, 6-(3,5-difluorophenyl)-2-{3-[5-(4-methylpiperazin-1-yl)pyrimidin-2-yl]-benzyl}-2H-pyridazin-3-one] showed a negative-log IC50 (pIC50) of 6.00 to 9.00.

For the compound `O=c1ccc(-c2cc(F)cc(F)c2)nn1Cc1cccc(-c2ncc(N3CCNCC3)cn2)c1` [A19, 6-(3,5-difluorophenyl)-2-[3-(5-piperazin-1-ylpyrimidin-2-yl)benzyl]-2H-pyridazin-3-one], the negative-log IC50 (pIC50) is 6.00 to 9.00.

As for `CN1CCN(c2cnc(-c3cccc(Cn4nc(-c5cc(F)c(F)c(F)c5)ccc4=O)c3)nc2)CC1` [A20, 2-{3-[5-(4-methylpiperazin-1-yl)pyrimidin-2-yl]benzyl}-6-(3,4,5-trifluorophenyl)-2H-pyridazin-3-one], the pIC50 is 6.00 to 9.00.

For `CN1CCC(Oc2cnc(-c3cccc(Cn4nc(-c5cc(F)cc(F)c5)ccc4=O)c3)nc2)CC1` [A23, 6-(3,5-difluorophenyl)-2-{3-[5-(1-methylpiperidin-4-yloxy)pyrimidin-2-yl]benzyl}-2H-pyridazin-3-one], the pIC50 was 6.00 to 9.00.

For `O=c1ccc(-c2cc(F)cc(F)c2)nn1Cc1cccc(-c2ncc(Br)cn2)c1` [A25, 2-[3-(5-bromopyrimidin-2-yl)benzyl]-6-(3,5-difluorophenyl)-2H-pyridazin-3-one], the negative-log IC50 (pIC50) is 6.00 to 9.00.

On to `Cn1cc(-c2cnc(-c3cccc(Cn4nc(-c5cc(F)cc(F)c5)ccc4=O)c3)nc2)cn1` [A26, 6-(3,5-difluorophenyl)-2-{3-[5-(1-methyl-1H-pyrazol-4-yl)pyrimidin-2-yl]benzyl}-2H-pyridazin-3-one], for which the negative-log IC50 (pIC50) is 6.00 to 9.00.

Regarding `CN(C)CCCCNC(=O)c1cnc(-c2cccc(Cn3nc(-c4cc(F)c(F)c(F)c4)ccc3=O)c2)nc1` [A35], the pIC50 is 6.00 to 9.00.

`CN1CCN(CCOc2cnc(-c3cccc(Cn4nc(-c5cc(F)cc(F)c5)ccc4=O)c3)nc2)CC1` [A57] gave a pIC50 of 6.00 to 9.00.

With `O=c1ccc(-c2cc(F)cc(F)c2)nn1Cc1cccc(-c2ncc(-c3cnn(C4CCNCC4)c3)cn2)c1` [A63], the pIC50 was 6.00 to 9.00.

For `CN(C)CCOc1cnc(-c2cccc(Cn3nc(-c4cc(F)cc(F)c4)ccc3=O)c2)nc1` [A64, 2-{3-[5-(2-dimethylaminoethoxy)pyrimidin-2-yl]benzyl}-6-(3,5-difluorophenyl)-2H-pyridazin-3-one], the pIC50 is 6.00 to 9.00.

The compound `CN1CCC(COc2cnc(-c3cccc(Cn4nc(-c5cc(F)cc(F)c5)ccc4=O)c3)nc2)CC1` [A66] gave a pIC50 of 6.00 to 9.00.

On to `Cc1cnc(-c2cccc(Cn3nc(-c4ccc5nsnc5c4)ccc3=O)c2)nc1` [A79], for which the negative logarithm of the IC50 (pIC50) was 6.00 to 9.00.

For `O=c1ccc(-c2cc(F)cc(F)c2)nn1Cc1cccc(-c2ncc(OC3CCNCC3)cn2)c1` [A102, 6-(3,5-difluorophenyl)-2-{3-[5-(piperidin-4-yloxy)pyrimidin-2-yl]benzyl}-2H-pyridazin-3-one], the negative-log IC50 (pIC50) was 6.00 to 9.00.

With `N#Cc1cccc(-c2ccc(=O)n(Cc3cccc(-c4ncc(-c5cnn(CCN6CCCC6)c5)cn4)c3)n2)c1` [A168, 3-[6-oxo-1-(3-{5-[1-(2-pyrrolidin-1-ylethyl)-1H-pyrazol-4-yl]pyrimidin-2-yl}benzyl)-1,6-dihydropyridazin-3-yl]-benzonitrile], the negative-log IC50 (pIC50) is 6.00 to 9.00.

`Cn1cc(-c2ccc(=O)n(Cc3cccc(-c4ncc(-c5cnn(CCN6CCCC6)c5)cn4)c3)n2)cn1` [A169] showed a pIC50 of 6.00 to 9.00.

As to `CN(C)CCCOc1cnc(-c2cccc(Cn3nc(-c4cnn(C)c4)ccc3=O)c2)nc1` [A209, 2-{3-[5-(3-dimethylaminopropoxy)pyrimidin-2-yl]-benzyl}-6-(1-methyl-1H-pyrazol-4-yl)-2H-pyridazin-3-one], the pIC50 is 6.00 to 9.00.

For `CN1CCC(Oc2cnc(-c3cccc(Cn4nc(-c5cnn(C)c5)ccc4=O)c3)nc2)CC1` [A226, 2-{3-[5-(1-methylpiperidin-4-yloxy)pyrimidin-2-yl]-benzyl}-6-(1-methyl-1H-pyrazol-4-yl)-2H-pyridazin-3-one], the negative-log IC50 (pIC50) was 6.00 to 9.00.

For `CN1CCC(COc2cnc(-c3cccc(Cn4nc(-c5cnn(C)c5)ccc4=O)c3)nc2)CC1` [A237, 2-{3-[5-(1-methylpiperidin-4-ylmethoxy)pyrimidin-2-yl]-benzyl}-6-(1-methyl-1H-pyrazol-4-yl)-2H-pyridazin-3-one], the negative-log IC50 (pIC50) is 6.00 to 9.00.

As for `CN1CCN(c2cnc(-c3cccc(Cn4nc(-c5cccc(C#N)c5)ccc4=O)c3)nc2)CC1` [A287, 3-(1-{3-[5-(4-methylpiperazin-1-yl)pyrimidin-2-yl]benzyl}-6-oxo-1,6-dihydropyridazin-3-yl)benzonitrile], the pIC50 was 6.00 to 9.00.

With `N#Cc1cccc(-c2ccc(=O)n(Cc3cccc(-c4ncc(N5CCNCC5)cn4)c3)n2)c1` [A288, 3-{6-oxo-1-[3-(5-piperazin-1-ylpyrimidin-2-yl)benzyl]-1,6-dihydropyridazin-3-yl}benzonitrile], the pIC50 is 6.00 to 9.00.

A further test has as its system TPR-Met/NIH3T3 cells. The experiment in a line: In-vivo tests: tumour volume, TPR-Met/NIH3T3 cells injected subcutaneously in Balb/C mice. To be noted: female Balb/C mice, s.c. TPR-Met/NIH3T3 tumour, 200 mg/kg daily by gastric tube, 9 days. On the procedure:
They were acclimatised to our keeping conditions for 7 days. Each mouse was subsequently injected subcutaneously in the pelvic area with 4 million TPR-Met/NIH3T3 cells in 100 μl of PBS (without Ca++ and Mg++).
Regarding `CN1CCN(c2cnc(-c3cccc(Cn4nc(-c5cc(F)cc(F)c5)ccc4=O)c3)nc2)CC1` [A18, 6-(3,5-difluorophenyl)-2-{3-[5-(4-methylpiperazin-1-yl)pyrimidin-2-yl]-benzyl}-2H-pyridazin-3-one], the “antitumoural action (tumour volume)” value was “significant antitumoural action”.
